From patent EP0104826A2, “Immunomodulator and method of use for immunomodulation” (FUJISAWA PHARMACEUTICAL CO., LTD., priority 1982, dated 1984)

Assays:
Assay type in all cases: in vivo
[1] = system: antibody forming capacities; assay: Antibody forming capacity (PFC-SRBC) in mice immunosuppressed with mitomycin C; conditions: BDF1 mice; Mitomycin C (1.0 mg/kg) i.p. + Saline
Method: Female BDF1 (8 weeks in age) mice were injected intraperitoneally with mitomycin C (1 mg/kg) from four days before immuization with 5 x 10^8 SRBC, every day for three days. Samples also were administered to mice intraperitoneally from four days before immunization, every day for five days.
At day 9, mice were sacrificed and the number of direct plaque forming cells per spleen was measured by using Cunningham modification method.

thymus = assay: Dexamethasone-induced thymus atrophy in mice; conditions: ddY mice; dexamethasone 1 ug/ml in drinking water, no sample; n=5
Method: Five week-old ddY mice(male) were used. Samples were given subcutaneously twice per day from day 0 to day 2 of the experiment. Five hours after first medication on day 0, mice were supplied with drinking water containing 1 ug/ml of dexamethasone.
At day 2, the weight of thymus of the treated mice was compared with that of the nontreated controls.

[2] = system: antibody forming capacities; assay: Antibody forming capacity (PFC-SRBC) in mice immunosuppressed with cyclophosphamide; conditions: BDF1 mice; Cyclophosphamide (22.5 mg/kg) i.p. + Saline
Method: Female BDF1 (8 weeks in age) mice were injected intraperitoneally with cyclophosphamide (22.5 mg/kg) 4 days before immunization with 5 x 10^8 SRBC. Samples were administered to mice i.p. from four days before immunization, every day for five days.
Mouse splenic lymphocytes producing antibody against SRBC were quantitated by using Cunningham modification method described previously.

Structure (SMILES): CO[C@@]12[C@H](COC(N)=O)C3=C(C(=O)C(C)=C(N)C3=O)N1C[C@@H]1N[C@@H]12 [Mitomycin C, reference compound]
- PFC-SRBC/spleen (average number of 5 mice/group) [1]: 12.65 x 10^4 PFC-SRBC/spleen

Structure (SMILES): C[C@@H]1C[C@H]2[C@@H]3CCC4=CC(=O)C=C[C@]4(C)[C@@]3(F)[C@@H](O)C[C@]2(C)[C@@]1(O)C(=O)CO [Dexamethasone, reference compound]
- Thymus weight (thymus): 57.2 mg/mouse

Structure (SMILES): O=P1(N(CCCl)CCCl)NCCCO1 (stereo not drawn) [Cyclophosphamide, reference compound]
- PFC-SRBC/spleen (average number of 5 mice/group) [2]: 8.46 x 10^4 PFC-SRBC/spleen
